Laboratory results: patent US20030130203A1, “Medicament for combating respiratory depression” (priority 2000, published 2003)

System: awake male Sprague Dawley rats
Assay: Measurement of respiratory rate on the awake rat
Assay type: in vivo
Conditions: i.v., measured immediately and up to 15 min
Procedure: Measurement of Respiratory Rate on the Awake Rat
To study the respiratory rate, awake male Sprague Dawley rats (Janvier, France) weighing 190 to 315 g were immobilized in Plexiglas tubes. For intravenous administration of the medicament solutions, the rats were each provided with a catheter in the caudal vein. The respiratory rate of the rats was measured via a water-filled balloon catheter located laterally between the rat and the Plexiglas tube. The balloon catheter was connected to a pressure sensor and a high-speed chart recorder (Gould, Dietzenbach).
After an equilibration period of 30 minutes, a baseline value for the respiratory rate was determined. The appropriate active ingredient solution was then administered intravenously and the respiratory rate was measured immediately and after 1, 2, 5, 10 and 15 minutes. Each rat received a single administration per day.

Structure (SMILES) | respiratory rate (10 mg/kg morphine only in 0.9% saline) | respiratory rate (0.215 mg/kg montirelin together with 10 mg/kg morphine in 0.9% saline)
CN1CC[C@]23c4c5ccc(O)c4O[C@H]2[C@@H](O)C=C[C@H]3[C@H]1C5 [Comparative Example 1, morphine] | marked decrease in respiratory rate | –
C[C@H]1SC[C@@H](C(=O)N[C@H](Cc2c[nH]cn2)C(=O)N2CCC[C@H]2C(N)=O)NC1=O [Example 1, montirelin] | – | no decrease in respiratory rate
